Results taken from the supplement of paper PMC10307832.

Experiments:
Assay in all cases: relative viability (nuclei count vs DMSO), 5 days (fraction); higher = more cells survive
[1] = tested on: NCI-H520
Procedure, shortened: (§1)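 Values are medians from duplicate plates. Each reflects relative viability, defined as the nuclei count of treated wells over that of vehicle wells. Lung cancer cell lines in 1536-well plates were pin-tool dosed one day after seeding with one drug alone or with a fixed anchor-drug dose plus five library-drug doses (not always all listed) in √10 steps, then fixed, stained and imaged at 4× after 5 days.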

[2] = tested on: NCI-H1650
Procedure, shortened: as §1

[3] = tested on: NCI-H1793
Procedure, shortened: as §1

[4] = tested on: NCI-H2347
Procedure, shortened: as §1

[5] = tested on: NCI-H1993
Procedure, shortened: as §1

[6] = tested on: NCI-H2228
Procedure, shortened: as §1

[7] = tested on: LC-2-ad
Procedure, shortened: as §1

[8] = tested on: BEN
Procedure, shortened: as §1

[9] = tested on: LU99A
Procedure, shortened: as §1

[10] = tested on: NCI-H1355
Procedure, shortened: as §1

[11] = tested on: NCI-H650
Procedure, shortened: as §1

[12] = tested on: A-427
Procedure, shortened: as §1

[13] = tested on: EKVX
Procedure, shortened: as §1

[14] = tested on: NCI-H23
Procedure, shortened: as §1

[15] = tested on: NCI-H1666
Procedure, shortened: as §1

[16] = tested on: NCI-H838
Procedure, shortened: as §1

[17] = tested on: SW 1573
Procedure, shortened: as §1

[18] = tested on: LOU-NH91
Procedure, shortened: as §1

[19] = tested on: LCLC-97TM1
Procedure, shortened: as §1

[20] = tested on: PC-3 [JPC-3]
Procedure, shortened: as §1

[21] = tested on: NCI-H460
Procedure, shortened: as §1

[22] = tested on: RERF-LC-KJ
Procedure, shortened: as §1

[23] = tested on: NCI-H1915
Procedure, shortened: as §1

O=c1[nH]c2ccccc2n1C1CCN(CCCC(c2ccc(F)cc2)c2ccc(F)cc2)CC1 [Pimozide] + CCNC(=O)c1noc(-c2cc(C(C)C)c(O)cc2O)c1-c1ccc(CN2CCOCC2)cc1 [Luminespib] (partner 0.01 µM)
relative viability ([1]; first compound 0.08 µM): 0.227 | relative viability ([1]; first compound 0.253 µM): 0.219 | relative viability ([1]; first compound 0.8 µM): 0.194 | relative viability ([1]; first compound 2.53 µM): 0.227 | relative viability ([1]; first compound 8 µM): 0.219 | relative viability ([2]; first compound 0.08 µM): 0.206 | relative viability ([2]; first compound 0.253 µM): 0.204 | relative viability ([2]; first compound 0.8 µM): 0.187 | relative viability ([2]; first compound 2.53 µM): 0.187 | relative viability ([2]; first compound 8 µM): 0.199 | relative viability ([3]; first compound 0.253 µM): 0.166 | relative viability ([3]; first compound 0.8 µM): 0.207 | relative viability ([3]; first compound 2.53 µM): 0.169 | relative viability ([3]; first compound 8 µM): 0.149 | relative viability ([4]; first compound 0.253 µM): 0.3 | relative viability ([4]; first compound 0.8 µM): 0.374 | relative viability ([4]; first compound 2.53 µM): 0.582 | relative viability ([4]; first compound 8 µM): 0.266 | relative viability ([5]; first compound 0.08 µM): 0.729 | relative viability ([5]; first compound 0.253 µM): 0.809 | relative viability ([5]; first compound 0.8 µM): 0.77 | relative viability ([5]; first compound 2.53 µM): 0.79 | relative viability ([5]; first compound 8 µM): 0.425 | relative viability ([6]; first compound 0.08 µM): 0.116 | relative viability ([6]; first compound 0.253 µM): 0.149 | relative viability ([6]; first compound 0.8 µM): 0.152 | relative viability ([6]; first compound 2.53 µM): 0.18 | relative viability ([6]; first compound 8 µM): 0.122 | relative viability ([7]; first compound 0.08 µM): 1.1 | relative viability ([7]; first compound 0.253 µM): 0.969 | relative viability ([7]; first compound 0.8 µM): 0.935 | relative viability ([7]; first compound 2.53 µM): 0.985 | relative viability ([7]; first compound 8 µM): 0.993 | relative viability ([8]; first compound 0.08 µM): 0.3 | relative viability ([8]; first compound 0.253 µM): 0.413 | relative viability ([8]; first compound 0.8 µM): 0.324 | relative viability ([8]; first compound 2.53 µM): 0.368 | relative viability ([8]; first compound 8 µM): 0.331 | relative viability ([9]; first compound 0.08 µM): 0.242 | relative viability ([9]; first compound 0.253 µM): 0.247 | relative viability ([9]; first compound 0.8 µM): 0.263 | relative viability ([9]; first compound 2.53 µM): 0.242 | relative viability ([9]; first compound 8 µM): 0.233 | relative viability ([10]; first compound 0.08 µM): 0.728 | relative viability ([10]; first compound 0.253 µM): 0.63 | relative viability ([10]; first compound 0.8 µM): 0.633 | relative viability ([10]; first compound 2.53 µM): 0.557 | relative viability ([10]; first compound 8 µM): 0.642 | relative viability ([11]; first compound 0.08 µM): 0.765 | relative viability ([11]; first compound 0.253 µM): 0.76 | relative viability ([11]; first compound 0.8 µM): 0.838 | relative viability ([11]; first compound 2.53 µM): 0.786 | relative viability ([11]; first compound 8 µM): 0.765 | relative viability ([12]; first compound 0.08 µM): 0.703 | relative viability ([12]; first compound 0.253 µM): 0.793 | relative viability ([12]; first compound 0.8 µM): 0.936 | relative viability ([12]; first compound 2.53 µM): 0.857 | relative viability ([12]; first compound 8 µM): 0.768 | relative viability ([13]; first compound 0.08 µM): 0.699 | relative viability ([13]; first compound 0.253 µM): 0.86 | relative viability ([13]; first compound 0.8 µM): 0.807 | relative viability ([13]; first compound 2.53 µM): 0.909 | relative viability ([13]; first compound 8 µM): 0.802 | relative viability ([14]; first compound 0.08 µM): 0.236 | relative viability ([14]; first compound 0.8 µM): 0.241 | relative viability ([14]; first compound 2.53 µM): 0.195 | relative viability ([14]; first compound 8 µM): 0.218 | relative viability ([15]; first compound 0.08 µM): 0.922 | relative viability ([15]; first compound 0.253 µM): 1.03 | relative viability ([15]; first compound 0.8 µM): 0.979 | relative viability ([15]; first compound 2.53 µM): 0.942 | relative viability ([15]; first compound 8 µM): 0.932 | relative viability ([16]; first compound 0.08 µM): 0.263 | relative viability ([16]; first compound 0.253 µM): 0.379 | relative viability ([16]; first compound 0.8 µM): 0.309 | relative viability ([16]; first compound 2.53 µM): 0.296 | relative viability ([16]; first compound 8 µM): 0.244 | relative viability ([17]; first compound 0.08 µM): 0.214 | relative viability ([17]; first compound 0.253 µM): 0.301 | relative viability ([17]; first compound 0.8 µM): 0.188 | relative viability ([17]; first compound 2.53 µM): 0.223 | relative viability ([17]; first compound 8 µM): 0.198 | relative viability ([18]; first compound 0.08 µM): 0.377 | relative viability ([18]; first compound 0.253 µM): 0.345 | relative viability ([18]; first compound 0.8 µM): 0.399 | relative viability ([18]; first compound 2.53 µM): 0.359 | relative viability ([18]; first compound 8 µM): 0.313 | relative viability ([19]; first compound 0.08 µM): 0.89 | relative viability ([19]; first compound 0.253 µM): 0.689 | relative viability ([19]; first compound 0.8 µM): 0.62 | relative viability ([19]; first compound 2.53 µM): 0.632 | relative viability ([19]; first compound 8 µM): 0.679 | relative viability ([20]; first compound 0.08 µM): 0.402 | relative viability ([20]; first compound 0.253 µM): 0.714 | relative viability ([20]; first compound 0.8 µM): 0.699 | relative viability ([20]; first compound 2.53 µM): 0.723 | relative viability ([20]; first compound 8 µM): 0.599 | relative viability ([21]; first compound 0.08 µM): 0.0367 | relative viability ([21]; first compound 0.253 µM): 0.0252 | relative viability ([21]; first compound 0.8 µM): 0.0202 | relative viability ([21]; first compound 2.53 µM): 0.0243 | relative viability ([21]; first compound 8 µM): 0.0256 | relative viability ([22]; first compound 0.08 µM): 1.09 | relative viability ([22]; first compound 0.253 µM): 1.14 | relative viability ([22]; first compound 0.8 µM): 1.08 | relative viability ([22]; first compound 2.53 µM): 1.12 | relative viability ([22]; first compound 8 µM): 0.964 | relative viability ([23]; first compound 0.08 µM): 0.807 | relative viability ([23]; first compound 0.253 µM): 0.8 | relative viability ([23]; first compound 0.8 µM): 0.714 | relative viability ([23]; first compound 2.53 µM): 0.666 | relative viability ([23]; first compound 8 µM): 0.782
